Tests used:
SIK2 = target: T1, SIK2 (Homo sapiens, UniProt Q9H0K1); test: ADP-Glo kinase assay, SIK2; assay type: biochemical; details: ADP-Glo SIK kinase assay
T1 construct: purchased ThermoFisher Scientific PV4792
In short: (§1)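 Enzyme–substrate mix was started with ATP and incubated 120 min at RT. ADP formed was quantified by ADP-Glo: 40 min ATP depletion, then 30 min detection reagent converting ADP to ATP for luciferase luminescence, which rises with kinase activity. Controls: 1% DMSO and 10 μM staurosporine (final).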

[1] = test system: LPS triggered IL-10 secretion in monocyte-derived macrophages (MdM); test: MdM assay: LPS-triggered IL-10 (ELISA); assay type: cell-based, human; details: LPS 200 ng/mL, supernatant after 2 h, maximal fold change vs LPS only
In short: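 Human CD14+ monocytes differentiated 10 days with 100 ng/mL rhM-CSF into macrophages. Compound preincubated 1 h at 37 °C (0.2% DMSO), then LPS 200 ng/mL. IL-10 in supernatant after 2 h measured by sandwich ELISA.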

SIK3 = target: T2, SIK3 (Homo sapiens, UniProt Q9Y2K2); test: ADP-Glo kinase assay, SIK3; assay type: biochemical; details: ADP-Glo SIK kinase assay
T2 construct: purchased SignalChem S12-11G-100
In short: as §1

T2 sequence (Q9Y2K2 whole entry): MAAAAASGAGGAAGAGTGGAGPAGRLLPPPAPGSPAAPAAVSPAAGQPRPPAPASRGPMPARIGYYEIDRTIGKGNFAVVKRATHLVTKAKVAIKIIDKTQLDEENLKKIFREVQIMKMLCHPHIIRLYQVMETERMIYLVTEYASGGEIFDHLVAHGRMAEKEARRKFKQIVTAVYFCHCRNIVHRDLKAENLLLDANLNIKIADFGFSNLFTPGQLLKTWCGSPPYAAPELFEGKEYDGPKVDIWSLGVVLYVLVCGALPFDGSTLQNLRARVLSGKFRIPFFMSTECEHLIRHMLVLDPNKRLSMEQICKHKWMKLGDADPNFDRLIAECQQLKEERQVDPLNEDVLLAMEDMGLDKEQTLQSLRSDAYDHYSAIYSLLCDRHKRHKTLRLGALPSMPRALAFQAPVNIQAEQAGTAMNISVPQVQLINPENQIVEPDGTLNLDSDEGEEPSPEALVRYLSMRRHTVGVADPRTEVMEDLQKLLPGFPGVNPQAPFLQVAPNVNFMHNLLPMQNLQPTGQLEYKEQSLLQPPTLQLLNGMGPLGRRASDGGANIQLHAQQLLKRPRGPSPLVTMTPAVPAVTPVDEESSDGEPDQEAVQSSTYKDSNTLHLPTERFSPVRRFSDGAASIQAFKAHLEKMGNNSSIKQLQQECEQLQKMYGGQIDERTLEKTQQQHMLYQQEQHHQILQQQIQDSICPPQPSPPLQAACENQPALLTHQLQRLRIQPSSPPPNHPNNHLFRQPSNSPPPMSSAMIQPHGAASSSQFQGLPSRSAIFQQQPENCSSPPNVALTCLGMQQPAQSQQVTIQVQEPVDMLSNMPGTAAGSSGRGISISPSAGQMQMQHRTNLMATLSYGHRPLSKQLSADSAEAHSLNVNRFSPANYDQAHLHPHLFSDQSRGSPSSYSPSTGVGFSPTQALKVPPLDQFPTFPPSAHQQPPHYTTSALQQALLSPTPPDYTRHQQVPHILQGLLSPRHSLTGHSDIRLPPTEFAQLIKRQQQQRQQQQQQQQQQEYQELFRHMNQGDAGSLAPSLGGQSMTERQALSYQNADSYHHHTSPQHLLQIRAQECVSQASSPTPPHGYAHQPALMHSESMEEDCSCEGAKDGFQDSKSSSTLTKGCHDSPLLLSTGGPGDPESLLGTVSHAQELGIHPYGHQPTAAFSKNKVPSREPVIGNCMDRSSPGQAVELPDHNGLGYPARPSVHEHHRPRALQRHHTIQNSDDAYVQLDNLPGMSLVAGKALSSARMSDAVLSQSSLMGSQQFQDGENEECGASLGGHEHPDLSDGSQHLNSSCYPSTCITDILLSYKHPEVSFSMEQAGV
T1 sequence (Q9H0K1 whole entry): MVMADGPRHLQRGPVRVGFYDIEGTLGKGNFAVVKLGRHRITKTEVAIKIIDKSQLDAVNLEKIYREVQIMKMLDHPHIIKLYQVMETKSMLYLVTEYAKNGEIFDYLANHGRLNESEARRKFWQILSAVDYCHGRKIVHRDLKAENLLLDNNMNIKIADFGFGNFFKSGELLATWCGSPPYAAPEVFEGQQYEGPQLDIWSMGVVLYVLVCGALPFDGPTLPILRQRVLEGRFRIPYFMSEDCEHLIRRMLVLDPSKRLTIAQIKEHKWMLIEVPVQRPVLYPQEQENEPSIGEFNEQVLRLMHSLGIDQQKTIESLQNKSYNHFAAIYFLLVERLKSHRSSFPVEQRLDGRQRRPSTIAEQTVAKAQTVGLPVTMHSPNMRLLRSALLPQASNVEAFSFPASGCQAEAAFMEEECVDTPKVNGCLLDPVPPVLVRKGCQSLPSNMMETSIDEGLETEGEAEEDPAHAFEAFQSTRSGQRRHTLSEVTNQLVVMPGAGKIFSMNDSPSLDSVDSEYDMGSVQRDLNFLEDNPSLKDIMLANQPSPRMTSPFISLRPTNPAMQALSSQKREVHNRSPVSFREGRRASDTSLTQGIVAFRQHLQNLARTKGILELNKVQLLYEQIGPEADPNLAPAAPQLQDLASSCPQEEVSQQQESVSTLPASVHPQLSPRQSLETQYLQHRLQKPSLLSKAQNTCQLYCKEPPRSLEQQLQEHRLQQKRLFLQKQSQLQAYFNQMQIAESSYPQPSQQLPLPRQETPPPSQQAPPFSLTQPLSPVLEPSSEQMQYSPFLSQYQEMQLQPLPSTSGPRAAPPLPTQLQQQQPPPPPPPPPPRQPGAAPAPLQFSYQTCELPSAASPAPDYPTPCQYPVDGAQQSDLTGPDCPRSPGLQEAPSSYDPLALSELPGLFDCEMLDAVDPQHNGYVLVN

SMILES: COc1cc(-c2cnc3cc(OCCN)ccn23)cc(OC(F)F)c1C(=O)NC1CC1 [compound 118, 4-[7-(2-aminoethoxy)imidazo[1,2-a]pyridin-3-yl]-N-cyclopropyl-2-(difluoromethoxy)-6-methoxy-benzamide]
- IC50 (SIK2): 0.01 to 10 nM
- IL-10 FCmax median [1]: ++ (>1.5-4.5)
- IC50 (SIK3): 0.01 to 10 nM

SMILES: CNc1cc(-c2cnc3cc(OCCN(C)C)ccn23)cc(OC(F)F)c1C(=O)NCC(F)(F)F [Cpd 165, 2-(difluoromethoxy)-4-[7-[2-(dimethylamino)ethoxy]imidazo[1,2-a]pyridin-3-yl]-6-(methylamino)-N-(2,2,2-trifluoroethyl)benzamide]
- IC50 (SIK2): 0.01 to 10 nM
- IL-10 FCmax median [1]: ++ (>1.5-4.5)
- IC50 (SIK3): 0.01 to 10 nM

SMILES: COc1cc(-c2cnc3cc(OC[C@H]4CCCN4C)ccn23)cc2c1C(=O)N(CC(F)(F)F)CC2 [compound 124, 8-methoxy-6-[7-[[(2R)-1-methylpyrrolidin-2-yl]methoxy]imidazo[1,2-a]pyridin-3-yl]-2-(2,2,2-trifluoroethyl)-3,4-dihydroisoquinolin-1-one]
- IC50 (SIK2): 0.01 to 10 nM
- IL-10 FCmax median [1]: ++ (>1.5-4.5)
- IC50 (SIK3): 0.01 to 10 nM

SMILES: COc1cc(-c2cnc3cc(OCCN(C)C)ccn23)cc2c1C(=O)N(CC(F)(F)F)CC2 [Cpd 18, 6-[7-[2-(dimethylamino)ethoxy]imidazo[1,2-a]pyridin-3-yl]-8-methoxy-2-(2,2,2-trifluoroethyl)-3,4-dihydroisoquinolin-1-one]
- IC50 (SIK2): 0.01 to 10 nM
- IL-10 FCmax median [1]: ++ (>1.5-4.5)
- IC50 (SIK3): 10 to 100 nM

SMILES: CCN1CCCCC1COc1ccn2c(-c3cc(OC)c(C(=O)NC4CC4)c(OC(F)F)c3)cnc2c1 (stereo not drawn) [compound 83, N-cyclopropyl-2-(difluoromethoxy)-4-[7-[(1-ethyl-2-piperidyl)methoxy]imidazo [1,2-a]pyridin-3-yl]-6-methoxy-benzamide]
- IC50 (SIK2): 0.01 to 10 nM
- IL-10 FCmax median [1]: ++ (>1.5-4.5)
- IC50 (SIK3): 0.01 to 10 nM

SMILES: COc1cc(-c2cnc3cc(OCCCN(C)C)ccn23)cc(OC(F)F)c1C(=O)NC1CC1 [Cpd 13]
- IC50 (SIK2): 0.01 to 10 nM
- IL-10 FCmax median [1]: ++ (>1.5-4.5)
- IC50 (SIK3): 0.01 to 10 nM

SMILES: CN(C)CCOc1ccn2c(-c3cc(OC(F)F)c(C(=O)NC4CC4)c(OC(F)F)c3)cnc2c1 [compound 156, N-cyclopropyl-2,6-bis(difluoromethoxy)-4-[7-[2-(dimethylamino)ethoxy]imidazo[1,2-a]pyridin-3-yl]benzamide]
- IC50 (SIK2): 0.01 to 10 nM
- IL-10 FCmax median [1]: ++ (>1.5-4.5)
- IC50 (SIK3): 0.01 to 10 nM

SMILES: COc1cc(-c2cnc3cc(OC[C@H]4CN(C)CCO4)ccn23)cc2c1C(=O)N(CC(F)(F)F)CC2 [compound 190, 8-methoxy-6-[7-[[(2R)-4-methylmorpholin-2-yl]methoxy]imidazo[1,2-a]pyridin-3-yl]-2-(2,2,2-trifluoroethyl)-3,4-dihydro isoquinolin-1-one]
- IC50 (SIK2): 0.01 to 10 nM
- IL-10 FCmax median [1]: ++ (>1.5-4.5)
- IC50 (SIK3): 0.01 to 10 nM

SMILES: COc1cc(-c2cnc3cc(OCCN4CCS(=O)(=O)CC4)ccn23)cc2c1C(=O)N(CC(F)(F)F)CC2 [compound 41, 6-[7-[2-(1,1-dioxo-1,4-thiazinan-4-yl)ethoxy]imidazo[1,2-a]pyridin-3-yl]-8-methoxy-2-(2,2,2-trifluoroethyl)-3,4-dihydroisoquinolin-1-one]
- IC50 (SIK2): 0.01 to 10 nM
- IL-10 FCmax median [1]: ++ (>1.5-4.5)
- IC50 (SIK3): 0.01 to 10 nM

SMILES: COc1cc(-c2cnc3cc(OCCN(C)C)ccn23)cc(OC(F)F)c1C(=O)NC1CC1 [Cpd 6, N-cyclopropyl-2-(difluoromethoxy)-4-[7-[2-(dimethylamino)ethoxy]imidazo[1,2-a]pyridin-3-yl]-6-methoxy-benzamide]
- IC50 (SIK2): 0.01 to 10 nM
- IL-10 FCmax median [1]: ++ (>1.5-4.5)
- IC50 (SIK3): 0.01 to 10 nM

SMILES: COc1cc(-c2cnc3cc(OC[C@H]4CCCCN4C)ccn23)cc(OC(F)F)c1C(=O)NC1CC1 [compound 111, N-cyclopropyl-2-(difluoromethoxy)-6-methoxy-4-[7-[[(2R)-1-methyl-2-piperidyl]methoxy]imidazo[1,2-a]pyridin-3-yl]benzamide]
- IC50 (SIK2): 0.01 to 10 nM
- IL-10 FCmax median [1]: ++ (>1.5-4.5)
- IC50 (SIK3): 0.01 to 10 nM

SMILES: CN(C)CCOc1ccn2c(-c3cc4c(c(OC(F)F)c3)C(=O)N(CC(F)F)CC4)cnc2c1 [Cpd 150, 2-(2,2-difluoroethyl)-8-(difluoromethoxy)-6-[7-[2-(dimethylamino)ethoxy]imidazo[1,2-a]pyridin-3-yl]-3,4-dihydroisoquinolin-1-one]
- IC50 (SIK2): 0.01 to 10 nM
- IL-10 FCmax median [1]: ++ (>1.5-4.5)
- IC50 (SIK3): 0.01 to 10 nM

SMILES: COc1cc(-c2cnc3cc(OCCN4CCCC4)ccn23)cc2c1C(=O)N(CC(F)(F)F)CC2 [compound 123, 8-methoxy-6-[7-(2-pyrrolidin-1-ylethoxy)imidazo[1,2-a]pyridin-3-yl]-2-(2,2,2-trifluoroethyl)-3,4-dihydroisoquinolin-1-one]
- IC50 (SIK2): 0.01 to 10 nM
- IL-10 FCmax median [1]: ++ (>1.5-4.5)
- IC50 (SIK3): 0.01 to 10 nM

SMILES: COc1cc(-c2cnc3cc(OCCN4C[C@@H]5C[C@H]4CO5)ccn23)cc(OC(F)F)c1C(=O)NC1CC1 [compound 206, N-cyclopropyl-2-(difluoromethoxy)-6-methoxy-4-[7-[2-[(1S,4S)-2-oxa-5-azabicyclo[2.2.1]heptan-5-yl]ethoxy]imidazo[1,2-a]pyridin-3-yl]benzamide]
- IC50 (SIK2): 0.01 to 10 nM
- IL-10 FCmax median [1]: ++ (>1.5-4.5)
- IC50 (SIK3): 0.01 to 10 nM

SMILES: COc1cc(-c2cnc3cc(OCc4nncn4C)ccn23)cc(OC(F)F)c1C(=O)NC1CC1 [compound 227, N-cyclopropyl-2-(difluoromethoxy)-6-methoxy-4-[7-[(4-methyl-1,2,4-triazol-3-yl)methoxy]imidazo[1,2-a]pyridin-3-yl]benzamide]
- IC50 (SIK2): 0.01 to 10 nM
- IL-10 FCmax median [1]: ++ (>1.5-4.5)
- IC50 (SIK3): 0.01 to 10 nM

— patent US12264156B2, “Compounds and pharmaceutical compositions thereof for the treatment of diseases” (GALAPAGOS NV, priority 2018, dated 2025)
